Experiment [1] relates to HT-22 cells. Description: xCELLigence real-time cell impedance measurement. Format: cell-based, mouse. The following applies: ≥30 µM CE3F4 (30 and 100 μM), erastin 1 μM. The procedure:
Cell viability and metabolic activity of cells was first assessed using a colorimetric 3-(4,5-dimethylthiazol-2-yl)-2,5-diphenyltetrazolium Bromide (MTT) (Sigma–Aldrich Chemie GmbH, Steinheim, Germany, #M5655) reduction assay. Cells in a 96-well plate format (8–10,000 cells/well) were incubated with the MTT solution (0.5 mg/mL) for a maximum of 1 h at 37 °C. Afterward, the MTT-containing solution was entirely removed, and the 96-well plate was incubated at −80 °C for at least 2 h. To allow formazan to uniformly disperse in the medium, dimethyl sulfoxide (DMSO) (Sigma–Aldrich Chemie GmbH, Steinheim, Germany, #D8418, Lot# SHBH9942) was administered to the cells for 1 h at 37 °C with continuous shaking. The absorbance values were determined by Synergy™H1 (Bad Friedrichshall, Germany) Hybrid MultiMode Reader at 570 nm with a 630 nm reference filter. The absorbance values of untreated healthy cells or cells treated with DMSO 1% (used as a solvent for various pharmacological applications) were regarded as 100% of cell viability. […] HT-22 cells were treated with the following conditions: control condition (solvent), drug of interest, erastin, and pre- or co-treatment with erastin and drug of interest. […] Continuous cell monitoring was performed by using an E-plate 96 and the cellular impedance or cell resistance was assessed every 15 min for 24 h.

Experiment [2] has as its system HT-22 cells. Description: Brightfield images of cell morphology. It counts as cell-based, mouse. The following applies: 100 μM CE3F4 + erastin 1 μM.
The test system of experiment [3] is HT-22 cells. The experiment in a line: Lipid peroxidation, BODIPY FACS. The note with it: 100 μM CE3F4 + erastin 1 μM.
Experimental: (§1) Flow cytometry analysis using the CytoFLEXS benchtop flow cytometer (Beckman Coulter Life Sciences, Indianapolis, IN, USA) was used to evaluate intracellular parameters that are associated with not only oxidative stress but also mitochondrial dysfunction, and cell death. HT-22 cells (40,000 cells/well) seeded in 24-well plates were treated with various conditions. Treatment groups included: control condition (DMSO 1%), erastin 1 µM or 1.5 µM, CE3F4 100 µM, and co-treatment of erastin and CE3F4. Three separate wells were analyzed for each condition and the same number of counts (10,000/well) were measured by flow cytometry. At least three independent experiments were performed, and the Kaluza Analysis 1.5 software was employed for quantification of data.
The staining dye BODIPY 2 μM (Invitrogen, Karlsruhe, Germany, # D3861, Lot # 1890330) was used to estimate lipid peroxidation. Erastin treatment was done for 4 h. HT-22 cells were then stained for 30 min at RT, followed by a one-time wash with PBS and finally analyzed. Fluorescence excitation and detection were done at 488 nm and 530 nm respectively.
Experiment [4] concerns HT-22 cells. The experiment in a line: Extracellular flux analysis (Seahorse), oxygen consumption rate. Format: cell-based, mouse. The procedure: Cellular Oxygen Consumption Rate (OCR) was measured by using an XFe96 extracellular flux analyzer (Seahorse Bioscience, Billerica, MA, USA) which also entailed the mitochondrial stress test as described previously. HT-22 cells (10,000 cells/well) were seeded onto the XFe96-well cell culture microplate and incubated at 37 °C, 5% CO2. 24 h before the assay, the growth medium was replaced with a fresh medium containing either DMSO 1%, erastin 1 µM, CE3F4 alone, ESI-05 alone or a co-treatment of erastin with either CE3F4 or ESI-05. Cells in 180 μL of assay non-buffered DMEM medium supplemented with 2 mM glutamine, 4.5 g/L glucose and 1 mM pyruvate, pH 7.35 were incubated for 1 h in a CO2 free incubator at 37 °C. Basal respiration was measured before injecting the inhibitors that included; oligomycin (4 μM; port A)—an ATP synthase inhibitor; 2,4-dinitrophenol (DNP) (Sigma–Aldrich Chemie GmbH, Steinheim, Germany, #34334) (50 μM; port B)—a mitochondrial oxidative phosphorylation uncoupler; and rotenone (Sigma–Aldrich Chemie GmbH, Steinheim, Germany, #R8875) together with antimycin A (Sigma–Aldrich Chemie GmbH, Steinheim, Germany, #A8674) 0.1 μM and 1 μM; port C)—complex I and complex III inhibitors. By using the BCA assay, OCR measurements were normalized to the protein amount in every well. Three independent experiments with six wells per condition were performed, and a one-way ANOVA test was used to determine statistical significance among different groups.

The test system of experiment [5] is Epac1. The note with it: CE3F4, Epac1 inhibitor; cited from earlier work.
For experiment [6], the system named is HT-22 cells. The experiment in a line: Mitochondrial superoxide, MitoSOX FACS.
Experimental: as §1
MitoSOX dye (Invitrogen, Oregon City, OR, USA, #M36008, Lot#1924466) was used to evaluate mitochondrial ROS. The MitoSOX dye is able to permeate live cells and also selectively target mitochondria where it is swiftly oxidized by superoxides but not by other reactive oxygen species. […] Incubation of HT-22 cells with MitoSOX™ 1.25 μM dye was done for 30 min at 37 °C. Fluorescence excitation and detection were done at 488 nm and 690/50 nm respectively.
[7] abbreviates: CE3F4 + erastin 1 μM vs erastin alone.

Structures are written as SMILES.

Consider `CC1CCc2c(cc(Br)c(F)c2Br)N1C=O` (stereo not drawn) [CE3F4], for which the “protection against erastin-induced cell death (cell impedance)” value in experiment [1] is “markedly prevented erastin-induced cell death”. Moreover, the “effect on erastin-induced alteration in cell morphology” value in experiment [2] is given as “prevented”. Besides, the “effect on erastin-induced lipid peroxidation” value in experiment [3] is given as “significantly attenuated”. Moreover, the maximal respiration result in experiment [4] (100 μM CE3F4 alone) is given as “increased maximal respiration”. Besides, in experiment [4] (setting [7]), the “ATP-linked OCR” value is reported as “did not reach statistical significance”, the “basal OCR” value is on record as “did not reach statistical significance” and the “maximal OCR” value is “significantly increased”. Moreover, the half-maximal inhibitory concentration (IC50) (in general, the concentration that gives 50% inhibition) in experiment [5] is 23 ± 3 µM. Further, in experiment [6] (30 μM CE3F4 alone), the mitochondrial superoxide levels result is “shift towards the intermediate mitochondrial superoxide”. Moreover, the “mitochondrial superoxide levels (intermediate)” value in experiment [6] (100 μM CE3F4 alone, compared with 30 μM) was “further increased”. Further, the “effect on erastin-mediated mitochondrial superoxide levels” value in experiment [6] (CE3F4 30 μM + erastin 1 μM) was “did not affect erastin-mediated effects on mitochondrial superoxide levels”. The “effect on erastin-mediated mitochondrial superoxide levels” value in experiment [6] (CE3F4 100 μM + erastin) is listed as “significantly attenuated the increase in high mitochondrial superoxide levels”.

Source of the values: PMC8868285, “Pharmacological Inhibition of Epac1 Averts Ferroptosis Cell Death by Preserving Mitochondrial Integrity” (Antioxidants, 2022).
